In patent publication US20240132461A1, “FLAVONE DEAZA SPERMIDINE ANALOGUES AND THEIR USE TREATING CANCER” (FLORATEK PHARMA S.A., priority 2021, published 2024):

Legend:
RXF 486 = assay: Cell viability assay, MDR renal carcinoma patient derived line RXF 486; format: cell-based; details: RXF 486 MDR renal carcinoma patient derived line
Experimental: (§1) Antitumor activity of the compounds and doxorubicin as a positive control was assessed by using the CellTiter-Blue Cell Viability Assay (Promega, #G8082) or CellTiter-Glow® Luminescent Cell Viability assay (Promega # G7572) according to the manufacturer's instructions. The compounds were tested at 5 or 6 concentrations in half-log increments (highest concentration 30 μM-100 μM) in duplicate or triplicate well conditions.
(§2) Tumor cells were grown at 37° C. in a humidified atmosphere with 5% CO2 in RPMI 1640 or DMEM medium, supplemented with 10% (v/v) fetal calf serum and 50 μg/ml gentamicin for up to 20 passages, and were passaged once or twice weekly. Cells were harvested using TrypLE or PBS buffer containing 1 mM EDTA, and the percentage of viable cells is determined using a CASY Model TT cell counter (OMNI Life Science). Cells were harvested from exponential phase cultures, counted and plated in 96 well flat-bottom microtiter plates at a cell density depending on the cell line's growth rate (4,000-20,000 cells/well depending on the cell line's growth rate, up to 60,000 for hematological cancer cell lines) in RPMI 1640 or DMEM medium supplemented with 10% (v/v) fetal calf serum and 50 μg/ml gentamicin (140 μl/well). […] Viability of cells was quantified by the CellTiter-Blue® cell viability assay (Promega G8081) or CellTiter-Glow® Luminescent Cell Viability assay (Promega # G7572). […]

[1] = test system: pancreatic carcinoma cell; assay: Cell viability assay, pancreatic carcinoma cell lines (summary); format: cell-based; details: summary of Table 12; read-out: IC50s, pancreatic carcinoma cell growth
Experimental: as §1
(§3) Tumor cells were grown at 37° C. in a humidified atmosphere with 5% CO2 in RPMI 1640 or DMEM medium, supplemented with 10% (v/v) fetal calf serum and 50 μg/ml gentamicin for up to 20 passages, and were passaged once or twice weekly. Cells were harvested using TrypLE or PBS buffer containing 1 mM EDTA, and the percentage of viable cells is determined using a CASY Model TT cell counter (OMNI Life Science). Cells were harvested from exponential phase cultures, counted and plated in 96 well flat-bottom microtiter plates at a cell density depending on the cell line's growth rate (4,000-20,000 cells/well depending on the cell line's growth rate, up to 60,000 for hematological cancer cell lines) in RPMI 1640 or DMEM medium supplemented with 10% (v/v) fetal calf serum and 50 μg/ml gentamicin (140 μl/well). Cultures were incubated at 37° C. and 5% CO2 in a humidified atmosphere. After 24 h, 10 μl of test compounds or control medium are added, and left on the cells for another 72 h. Compounds were serially diluted in DMSO, transferred in cell culture medium, and added to the assay plates. The DMSO concentration was kept constant at <0.3% v/v across the assay plate. Viability of cells was quantified by the CellTiter-Blue® cell viability assay (Promega G8081) or CellTiter-Glow® Luminescent Cell Viability assay (Promega # G7572). Fluorescence (FU) was measured by using the EnSpire® multimode plate reader (Perkin Elmer) (excitation λ=570 nm, emission λ=600 nm) or luminescent detection of ATP in viable cells was used as parameter for proliferation. Luminescence was measured with the microplate luminometer (Promega or Perkin Elmer).
(§4) Sigmoidal concentration-response curves were fitted to the data points (test-versus-control, T/C values) obtained for each tumor model using 4 parameter non-linear curve fit (Charles River DRS Datawarehouse Software) or with GraphPad prism 5.02 software. IC50 values are reported as absolute IC50 values, being the concentration of test compound at the intersection of the concentration-response curves with T/C=50%

MIA-Pa-Ca-2 = assay: Cell viability assay, pancreatic carcinoma cell line MIA-Pa-Ca-2; format: cell-based; details: Homo sapiens, MIA PaCa-2; MIA-Pa-Ca-2 pancreatic carcinoma cell line
Experimental: as §1, §3, §4

[2] = In vivo maximum tolerated dose in NOG mice; details: for tolerability at the highest dose administered: 8-10 mg/kg i.p., daily or every other day over 8 days; for MTD at 8 days: mouse, in vivo, ip, repeated i.p. administration, MTD not reached, read-out: maximum tolerated dose (MTD), estimated
Experimental: In order to evaluate the general toxicity of selected SND compounds in an animal model, a maximum tolerated dose (MTD) in NOG mice has been undertaken. Three mice per group were treated daily or every other day over 8 days at various doses between 5 mg/kg and 10 mg/kg. Administration of the compounds was i.p. A stock solution of the compounds (40 mg/ml in DMSO) was prepared and frozen at −20° C. in aliquots for each treatment. […] Body weights were measured before each treatment. Mice were further observed for 1 week after the last treatment.

Panc-1 = assay: Cell viability assay, pancreatic carcinoma cell line Panc-1; format: cell-based; details: Homo sapiens; Panc-1 pancreatic carcinoma cell line
Experimental: as §1, §3, §4

H69AR [3] = assay: Cell viability assay, resistant small cell lung carcinoma cell line H69AR; format: cell-based; details: H69AR multiple drug resistant small cell lung carcinoma cell line
Experimental: as §1, §3, §4
The multiple drug resistant cell line H69AR obtained from ATCC, was established from NCI-H69 cells that were grown in the presence of increasing concentrations of adriamycin (doxorubicin). The H69AR cell line is approximately 50-fold resistant to adriamycin as compared to the parental NCI-H69 cell line. SND141, SND142, SND143, SND146, SND147 and SND148 inhibited the resistant cell line H69AR with IC50s below 5 μM, as presented in Table 8.

lung carcinoma cell = assay: Cell viability assay, lung carcinoma cell lines (summary); format: cell-based; details: summary of Tables 7A-E; read-out: IC50s, lung carcinoma cell growth
Experimental: as §1, §3, §4

CALU-6 = assay: Cell viability assay, non-small cell lung carcinoma cell line CALU-6; format: cell-based; details: Homo sapiens; CALU-6 non-small cell lung carcinoma cell line
Experimental: as §1, §3, §4

CH-17-0098 = assay: PDX cytotoxicity assay, bile duct PDX CH-17-0098; format: cell-based
Experimental: PDX-derived cell cultures were obtained from tumors explanted from mice and isolated by mechanical and enzymatic dissociation. […] Cells were harvested and seeded in 96-wells plates at a density of 1.25 to 5×10^3 cells/well for cytotoxicity assays. Cells were incubated 48 h at 37° C. prior to addition of test molecules and vehicle (DMSO, 0.1%) at desired final concentrations. Cell viability was assessed before drugs' addition (T0) and 5 days after test molecules addition by measuring ATP cell content using CellTiter-Glo® Luminescent Cell Viability Assay (Promega) according to the manufacturer's instructions. Luciferase activity was measured on a luminometer (PerkinElmer® EnVision™). Each concentration of compounds was tested in triplicate.
Viability was calculated as a percentage of ATP value compared to vehicle treated controls.
For PDX primary cell cultures, the tumour tissue was washed with PBS containing antibiotic-antimycotic and non-tumour tissue and necrotic tumour tissues were separated. The tumour tissue was transferred to a new dish and cut into 1˜2 mm^3 fragments, resuspended in RPMI-1640 medium and centrifuged at 1,200 rpm for 6 min at room temperature. The pelleted material was resuspended with 15 mL of Tumour Cell Digestion Solution and incubated at 37° C. for 1 hour with agitation. […]

IMR-5-75 = assay: Cell viability assay, brain carcinoma cell line IMR-5-75; format: cell-based; details: IMR-5-75 brain carcinoma cell line
Experimental: as §1, §2

melanoma cell lines = assay: Cell viability assay, melanoma cell lines (summary); format: cell-based; details: summary of Tables 14A and 14B; read-out: IC50s, melanoma cell lines growth
Experimental: as §1, §3, §4

NCI-H1299 = assay: Cell viability assay, non-small cell lung carcinoma cell line NCI-H1299; format: cell-based; details: Homo sapiens
Experimental: as §1, §3, §4

A375 = assay: Cell viability assay, melanoma cell line A375; format: cell-based; details: Homo sapiens, A-375
Experimental: as §1, §3, §4

SK-OV-3 = assay: Cell viability assay, ovarian carcinoma cell line SK-OV-3; format: cell-based
Experimental: as §1, §2

MeWo = assay: Cell viability assay, melanoma cell line MeWo; format: cell-based; details: Homo sapiens
Experimental: as §1
as §3, with “Elmer). […]” for “Elmer).”

H69AR [4] = details: H69AR from ATCC, vs parental NCI-H69; cited from earlier work

Structure (SMILES) | IC50 (RXF 486) [µM] | IC50 [1] [µM] | IC50 (MIA-Pa-Ca-2) [µM] | tolerability at the highest dose administered [2] | MTD at 8 days [2] [mg/kg] | IC50 (Panc-1) [µM] | IC50 (H69AR [3]) [µM] | IC50 (H69AR [3]; Homo sapiens, H69AR) [µM] | IC50 (lung carcinoma cell) [µM] | other results
COc1c(O)ccc2c(=O)cc(-c3ccc(CCCCN4CCCC4)cc3)oc12 [SND143, 7-hydroxy-8-methoxy-2-(4-(4-(pyrrolidin-1-yl)butyl)phenyl)-4H-chromen-4-one] | 1.3 | < 10 | 4.96 | well tolerated | > 10 | 6.09 | 3.3 | < 5 | – | –
COc1c(O)ccc2c(=O)cc(-c3ccc(CCCCN(C)CCN4CCCCC4)cc3)oc12 [SND146, 7-Hydroxy-8-methoxy-2-(4-(4-(methyl(2-(piperidin-1-yl)ethyl)amino)butyl)phenyl)-4H-chromen-4-one] | 0.4 | < 10 | 0.87 | – | – | 1.2 | – | – | < 20 | IC50 (CALU-6): 17.2 µM
COc1c(O)ccc2c(=O)cc(-c3ccc(CCCCN4CCCCC4)cc3)oc12 [SND148, 7-hydroxy-8-methoxy-2-(4-(4-(piperidin-1-yl)butyl)phenyl)-4H-chromen-4-one] | – | < 10 | 2.21 | well tolerated | > 10 | 2.3 | 2.5 | < 5 | – | IC50 (CH-17-0098): 13.9 µM
COc1c(O)ccc2c(=O)cc(-c3ccc(CCCCNCCNCCCN)cc3)oc12 [SND211] | – | – | – | – | – | – | – | – | < 20 | IC50 (IMR-5-75): 1.5 µM; IC50 (melanoma cell lines): < 10 µM; IC50 (NCI-H1299): 1.8 µM; IC50 (A375): 1.8 µM; IC50 (SK-OV-3; Homo sapiens, SK-OV-3, SK-OV-3 ovarian carcinoma cell line): < 20 µM; IC50 (SK-OV-3; SK-OV-3 ovarian carcinoma cell line): 10.6 µM; IC50 (MeWo): 5.3 µM
COc1cccc2c1C(=O)c1c(O)c3c(c(O)c1C2=O)C[C@@](O)(C(=O)CO)C[C@@H]3O[C@H]1C[C@H](N)[C@H](O)[C@H](C)O1 [adriamycin] | – | – | – | – | – | – | – | – | – | resistance of H69AR compared to the parental NCI-H69 cell line (H69AR [4]): approximately 50 fold
